Test results as given in ChEMBL document CHEMBL1955720 (Bioorg Med Chem, 2012).

Assays:
[1] = system: RAW264.7; assay: Antiinflammatory activity in mouse RAW264.7 cells assessed as inhibition of LPS-induced NO production at 40 uM preincubated for 30 mins measured 24 hrs post LPS challenge by Griess method; format: functional
[2] = system: HEK293; assay: Inhibition of TNF-alpha activated NF-kappaB expressed in HEK293 cells at 50 uM by luciferase reporter gene assay; format: cell-based
[3] = Inhibition of TNF-alpha activated NF-kappaB expressed in HEK293 cells by luciferase reporter gene assay; format: cell-based
[4] = target: NAD(P)H dehydrogenase [quinone] 1 (Mus musculus) (UniProt Q64669); assay: Induction of QR1 in mouse Hepa-1c1c7 cells assessed as concentration required to double QR1 induction by MTT assay; format: cell-based
[5] = target: T1, Nitric oxide synthase, inducible (Mus musculus, UniProt P29477)
T1 sequence (P29477 whole entry): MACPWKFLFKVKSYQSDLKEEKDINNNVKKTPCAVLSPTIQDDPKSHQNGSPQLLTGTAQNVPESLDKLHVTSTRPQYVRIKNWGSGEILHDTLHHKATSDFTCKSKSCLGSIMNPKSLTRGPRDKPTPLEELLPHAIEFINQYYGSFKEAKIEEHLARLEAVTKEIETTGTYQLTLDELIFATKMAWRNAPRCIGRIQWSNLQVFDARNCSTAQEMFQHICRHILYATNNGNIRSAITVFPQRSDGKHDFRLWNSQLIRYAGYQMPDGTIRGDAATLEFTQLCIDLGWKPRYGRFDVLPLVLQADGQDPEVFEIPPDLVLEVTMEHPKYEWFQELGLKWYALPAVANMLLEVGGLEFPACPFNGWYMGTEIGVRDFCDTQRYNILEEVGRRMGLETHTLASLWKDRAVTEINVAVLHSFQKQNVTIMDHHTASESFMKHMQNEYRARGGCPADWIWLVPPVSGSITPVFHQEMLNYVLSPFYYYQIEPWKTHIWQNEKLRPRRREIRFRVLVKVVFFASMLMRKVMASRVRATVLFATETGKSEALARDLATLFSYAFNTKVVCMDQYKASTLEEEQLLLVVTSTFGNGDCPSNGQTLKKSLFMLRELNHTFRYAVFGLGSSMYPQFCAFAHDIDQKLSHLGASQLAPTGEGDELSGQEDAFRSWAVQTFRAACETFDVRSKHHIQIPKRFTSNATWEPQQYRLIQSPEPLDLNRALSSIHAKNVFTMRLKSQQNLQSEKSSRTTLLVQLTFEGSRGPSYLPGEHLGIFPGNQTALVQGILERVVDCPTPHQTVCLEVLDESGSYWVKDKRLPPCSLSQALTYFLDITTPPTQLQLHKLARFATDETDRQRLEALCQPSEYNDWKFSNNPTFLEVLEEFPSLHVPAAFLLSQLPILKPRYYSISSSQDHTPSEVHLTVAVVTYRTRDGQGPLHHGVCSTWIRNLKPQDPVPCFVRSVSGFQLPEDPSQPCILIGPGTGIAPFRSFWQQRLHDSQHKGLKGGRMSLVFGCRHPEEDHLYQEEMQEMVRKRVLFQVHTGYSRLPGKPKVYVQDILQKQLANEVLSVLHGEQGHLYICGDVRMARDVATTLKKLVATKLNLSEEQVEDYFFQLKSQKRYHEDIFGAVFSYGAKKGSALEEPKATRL
Description: Inhibition of iNOS in LPS-stimulated mouse RAW264.7 cells after 18 hrs

[6] = system: MCF7; assay: cells; details: Homo sapiens
Description: Cytotoxicity against human MCF7 cells by SRB assay

[7] = target: T2, Aromatase (Homo sapiens, UniProt P11511)
T2 sequence (P11511 whole entry): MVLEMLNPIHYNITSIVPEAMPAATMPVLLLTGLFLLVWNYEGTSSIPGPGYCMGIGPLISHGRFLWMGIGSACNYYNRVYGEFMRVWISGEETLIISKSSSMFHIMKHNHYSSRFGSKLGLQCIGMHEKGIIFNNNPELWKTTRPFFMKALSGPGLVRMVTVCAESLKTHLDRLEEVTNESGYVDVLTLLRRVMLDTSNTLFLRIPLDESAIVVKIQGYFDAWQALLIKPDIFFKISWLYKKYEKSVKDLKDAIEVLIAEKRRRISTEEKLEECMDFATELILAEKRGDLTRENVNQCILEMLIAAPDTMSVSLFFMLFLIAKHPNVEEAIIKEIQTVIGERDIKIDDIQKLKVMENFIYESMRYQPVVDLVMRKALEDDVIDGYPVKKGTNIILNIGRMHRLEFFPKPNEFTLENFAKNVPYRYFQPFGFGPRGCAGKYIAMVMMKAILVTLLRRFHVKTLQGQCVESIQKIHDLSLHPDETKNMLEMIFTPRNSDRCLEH

[8] = target: T2, Aromatase; assay: Inhibition of human aromatase using dibenzylfluorescein substrate at 20 uM after 30 mins by fluorescence assay; details: 0.5 h
[9] = target: T2, Aromatase; remark: listed apart in the source
[10] = target: NAD(P)H dehydrogenase [quinone] 1 (Mus musculus) (UniProt Q64669); assay: Induction of QR1 in mouse Hepa-1c1c7 cells assessed as induction ratio at 50 uM by MTT assay; format: cell-based
[11] = system: RAW264.7; assay: Antiinflammatory activity in mouse RAW264.7 cells assessed as inhibition of LPS-induced NO production preincubated for 30 mins measured 24 hrs post LPS challenge by Griess method; format: functional, cell-based

Chain of NAD(P)H dehydrogenase [quinone] 1 (Mus musculus) (Q64669 whole entry): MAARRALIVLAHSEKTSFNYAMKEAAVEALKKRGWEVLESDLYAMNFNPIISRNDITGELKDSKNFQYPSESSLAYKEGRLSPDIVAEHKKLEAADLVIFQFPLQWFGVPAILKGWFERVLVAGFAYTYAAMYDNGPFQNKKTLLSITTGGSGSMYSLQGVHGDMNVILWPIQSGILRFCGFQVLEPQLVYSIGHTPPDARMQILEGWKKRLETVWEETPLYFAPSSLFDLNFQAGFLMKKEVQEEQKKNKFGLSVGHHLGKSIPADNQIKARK

## Fc1ccc(-c2nc(-c3cccnc3)cs2)cc1
[1]
  inhibition at 40 µM: 54.6%
[2]
  inhibition: 28.8%

## Clc1ccc(-c2nc(-c3cccnc3)cs2)cc1
[1]
  inhibition at 40 µM: 76.3%
[3]
  IC50: 10.3 µM
[4]
  CD: 32 µM
[2]
  inhibition: 54%

## Oc1ccc(/C=C/c2cc(O)cc(O)c2)cc1 [RESVERATROL]
[5]
  IC50: 23.2 µM
[6]
  IC50: 87.6 µM

## c1cncc(-c2csc(-c3ccncc3)n2)c1
[3]
  IC50: 2.55 µM
[2]
  inhibition: 68.8%

## COc1ccc(-c2csc(-c3ccncc3)n2)cn1
[1]
  inhibition at 40 µM: 32.1%
[2]
  inhibition: 6%

## Clc1cc(-c2nc(-c3cccnc3)cs2)ccn1
[1]
  inhibition at 40 µM: -5.2%

## Brc1ccc(-c2csc(-c3cccnc3)n2)cn1
[7]
  IC50: 7.41 µM
[8]
  inhibition (INH): Active
[1]
  inhibition at 40 µM: 22.7%
[9]
  Ki: 1.48 µM
[4]
  CD: 20.1 µM
[2]
  inhibition: 16.4%
[10]
  Ratio: 5.1

## Brc1ccc(-c2nc(-c3cccnc3)cs2)cc1
[7]
  IC50: 7.92 µM
[1]
  inhibition at 40 µM: 72.5%
[3]
  IC50: 19.9 µM
[9]
  Ki: 1.72 µM
[4]
  CD: 32.8 µM
[2]
  inhibition: 46.8%
[10]
  Ratio: 4.27

## COc1cccc(-c2nc(-c3cccnc3)ns2)c1
[4]
  CD: 0.08 µM
[2]
  inhibition: 22.4%

## COc1cc(-c2nc(-c3cccnc3)cs2)ccn1
[7]
  IC50: 0.023 µM
[1]
  inhibition at 40 µM: 54.7%
[9]
  Ki: 0.00065 µM
[11]
  IC50: 47.8 µM
[2]
  inhibition: -4.9%
[10]
  Ratio: 0.7

## Oc1ccc(-c2nc(-c3cccnc3)cs2)cc1
[7]
  IC50: 11.2 µM
[1]
  inhibition at 40 µM: 35.7%
[9]
  Ki: 2.55 µM
[2]
  inhibition: 52.9%
[10]
  Ratio: 0.87

## COc1ccc(-c2csc(-c3cccnc3)n2)cn1
[1]
  inhibition at 40 µM: 16.3%

## Brc1cccc(-c2nc(-c3cccnc3)ns2)c1
[7]
  IC50: 6.73 µM
[9]
  Ki: 1.16 µM
[4]
  CD: 0.06 µM
[2]
  inhibition: 12.9%
[10]
  Ratio: 9.2

## Brc1ccc(-c2csc(-c3ccncc3)n2)cn1
[7]
  IC50: 2.68 µM
[8]
  inhibition (INH): Active
[1]
  inhibition at 40 µM: 8.6%
[9]
  Ki: 0.285 µM
[10]
  Ratio: 1.5

## CCOc1ccc(-c2csc(-c3ccncc3)n2)cn1
[7]
  IC50: 1.36 µM
[8]
  inhibition (INH): Active
[1]
  inhibition at 40 µM: 28.1%
[9]
  Ki: 0.1 µM
[2]
  inhibition: -2.4%
[10]
  Ratio: 1.1

## c1ccc(-c2nc(-c3cccnc3)cs2)cc1
[7]
  IC50: 0.9 µM
[1]
  inhibition at 40 µM: 60.1%
[3]
  IC50: 17.7 µM
[9]
  Ki: 0.0634 µM
[2]
  inhibition: 50.3%
[10]
  Ratio: 1.45

## COc1ccc(-c2nc(-c3cccnc3)cs2)cc1
[7]
  IC50: 18 µM
[1]
  inhibition at 40 µM: 48.3%
[9]
  Ki: 15 µM
[2]
  inhibition: 59.9%
[10]
  Ratio: 1.1
